Experimental data as given in patent US10391150B2, “Treatments for migraine and related disorders” (The University of Chicago, priority 2011, dated 2019).

B1: Interferon-gamma (protein, listed as Homo sapiens)
chain: MKYTSYILAFQLCIVLGSLGCYCQDPYVKEAENLKKYFNAGHSDVADNGTLFLGILKNWKEESDRKIMQSQIVSFYFKLFKNFKDDQSIQKSVETIKEDMNVKFFNSNKKKRDDFEKLTNYSVTDLNVQRKAIHELIQVMAELSPAAKTGKRKRSQMLFRGRRASQ

What was measured:
Format in all cases: cell-based, rat
[1] = tested on: CA3 pyramidal neuron spontaneous activity; experiment: Spontaneous CA3 pyramidal neuron spiking / bursting in slice cultures
Experimental: FIGS. 12a-12e IGF-1 increased spontaneous neuronal spiking activity. (FIG. 12a) Exemplary recording of unstimulated control CA3 pyramidal layer spontaneous electrophysiological activity. (FIG. 12b) Exemplary recording of 3-day IGF-1-exposed CA3 pyramidal layer spontaneous electrophysiological activity. […] Seven day treatments consisted of IGF-1 exposure for only 12 hours daily. Comparisons between groups made via ANOVA plus Holm-Sidak post hoc testing.

[2] = tested on: TNF-α mRNA; experiment: TNF-α mRNA after SD in slice cultures; conditions: two hours after SD evoked every 7-9 minutes for an hour
From the text: This prompted the inventors to examine whether insulin could reduce SD susceptibility by increasing CA3 pyramidal neuron bursting. The inventors induced SD trans-synaptically in rat HSC using electrical stimuli (100 μs pulses @ 10 Hz for 1 s) ranging from 1 to 10,000 nC in order to determine SD threshold in sham and experimental groups (Pusic et al., 2011). Results were based on n≥3-6/group. […] This insulin dose approximates the pharmacological levels seen in humans treated with nasal insulin. […] The inventors hypothesized that the effect of insulin occurred through IGF-1 receptor cross-talk.
After an hour of SD, slices were allowed to recover for 2 hours and then harvested for total RNA isolation and PCR amplification of cytokine targets. […] Next, dilution curve amplifications of primers were checked to be sure primers produced uniform amplification differences. For example, optimal amplifications show a uniform increase in Ct thresholds. In contrast, amplifications are not uniform with defective primers.
These positive samples were used for PCR array screening. Next, PCR array technology was used as a means more sensitive than traditional gene chips to look for evidence of T-cells in adult hippocampal slice cultures. The gene expression screen for inflammatory cytokine changes was completed by RT^2 Profiler™ PCR Arrays.

[3] = tested on: OS in microglia and astrocytes of hippocampal slice cultures; experiment: Cell-specific OS from SD (CellROX, confocal microscopy); conditions: IGF-1 100 ng/mL for three days
From the text: FIG. 13 Oxidative stress from SD preferentially rises in astrocytes and microglia, with the latter effect mitigated by IGF-1. The inventors have recently shown that spreading depression (SD), the most likely cause of migraine aura and perhaps migraine (Lauritzen and Kraig, 2005), occurs with increased oxidative stress (OS) and that OS, in turn, increases SD susceptibility (Grinberg et al., 2012). Reactive oxygen and nitrogen species that cause OS have both autocrine and paracrine signaling capacities that can affect SD susceptibility by altering excitability (Kishida and Klann, 2007). Accordingly, the inventors looked for the cellular origin of OS from SD. Here the inventors used hippocampal slice cultures (HSC) to probe for cell-specific changes in OS from SD. SD was induced trans-synaptically in rat HSCs using bipolar electrical stimuli at the dentate gyrus (Pusic et al., 2011). Six SDs were induced every 7-9 min over an hr, followed by 24 hr incubation in CellROX™, a fixable fluorogenic probe for measuring OS (Grinberg et al., 2012). HSCs were then fixed in 10% buffered formalin phosphate. Other fixatives (PLP, 4% paraformaldehyde) prevented detection of OS change. Tissue was then labeled for neurons (anti-NeuN), oligodendrocytes (anti-RIP), astrocytes (anti-GFAP), or for microglia (isolectin GS-IB4). […]

[4] = tested on: glutathione; experiment: Slice culture glutathione by Thiol Tracker; conditions: pulsed exposure to IFN-γ or exosomes from IFN-γ-pulsed slice cultures
From the text: FIGS. 17A-17B. Detection of an IFN-γ-induced rise in slice culture glutathione using Thiol Tracker™, a fluorescent indicator of glutathione. […] (FIG. 17B) Furthermore, this increase is significant (p<0.001; n≥5/group) and can be mimicked by exposure to exosomes isolated from slice cultures activated by pulsed-exposure to IFN-γ.
Since stimulated immune cells release exosomes that are capable of reducing OS in recipient cells, the inventors next tested whether IFN-γ stimulated slice cultures (and possibly their microglia) to release exosomes that mimicked the effects of IFN-γ. […] IFN-γ, when pulsed onto slice cultures for 12 hours triggers the release of nutritive exosomes that mimic the effect of pulsed exposure to IFN-γ (16, 17). Since pulsed-exposure to IFN-γ reduces OS and glutathione is a naturally occurring inhibitor of neutral sphingomyelinase, the inventors probed for an IFN-γ-induced rise in slice culture glutathione using Thiol Tracker™, a fluorescent indicator of glutathione (FIG. 17).

Molecule	spontaneous CA3 pyramidal neuron bursting versus control ([1]; 3-day IGF-1 treatment)	spontaneous CA3 pyramidal neuron bursting versus control ([1]; 7-day IGF-1 treatment, 12 hours daily)	spontaneous CA3 pyramidal neuron spiking versus control ([1]; acute IGF-1 treatment)	TNF-α mRNA levels [2]	OS from SD in microglia [3]	astrocytic OS from SD [3]	slice culture / microglial glutathione [4]
Insulin-like growth factor 1 [IGF-1]	increase in spontaneous CA3 pyramidal neuron bursting	increase in spontaneous CA3 pyramidal neuron bursting	increase in spontaneous CA3 pyramidal neuron spiking	did not involve a change in TNF-α mRNA levels	decreased	unchanged	
B1							selectively increases microglial glutathione
